Experimental data as given in US20070060607A1, “4-amino-thieno[3,2-c] pyridine-7-carboxylic acid derivatives” (priority 2005, published 2007).

Each compound was assayed against T1, c-Raf (Homo sapiens, UniProt P04049) (assay: In vitro kinase assay: c-Raf HTRF assay with 6H-MEK as substrate). Conditions: 6H-MEK substrate, dose response.
T1 construct: made in house; host or cells: baculovirus Hi5 insect cells, co-expressed with v-src-FLAG
Assay type: biochemical
Description: In vitro enzyme activity was determined with c-Raf using a HTRF assay with 6H-MEK as substrate (Dose Response).
The assay utilizes 6H-MEK as the substrate. Upon c-Raf phosphorylation, phosphorylated 6H-MEK is detected with rabbit anti-phospho-MEK1/2, Eu-labeled anti-rabbit, and APC-labeled anti-6H antibodies.
c-Raf enzyme was cloned human c-Raf with EE-tag and was phosphorylated (co-expressed with v-src-FLAG in baculovirus Hi5 cells), 0.2 mg/mL (2.74 μM assuming a molecular weight of 73 kD) and stored at −15° C. Wild-type full-length 6H-MEK was used as substrate, 4.94 mg/mL (154.4 μM assuming a MW of 32 kD) and stored at −15° C.
The following antibodies were used in the detection step: Rabbit α-P-(Ser 217/221)-MEK-1/2 Ab (from Cell Signaling, Cat. # 9121S, Lot 4); Eu-α-rabbit IgG (from Wallac, Cat. # AD0083, Lot 107557, labeling date Jun. 21, 2002, 8 Eu/protein, 580 μg/mL, 3.63 μM); α-6H-SureLight-APC (from Martek, Cat. #AD0059H, Lot E011ABO1, 3.15 μM).
Assays were read with Envision from PerkinElmer, HTRF reading mode with 412 mirrors.
Assays were performed with Costar 384 all-black plates, 120 μL (Cat. # 3710).
Test compounds were dispensed in Weidman 384 polypropylene plates (REMP).
Assay Procedure: • Prepare Kinase Assay Buffer (KAB): 50 mM HEPES (HyClone) pH7, 10 mM MgCl2, 1 mM DTT, 0.1 mM […], and 0.2 mg/mL BSA. • Prepare 6H-MEK (150 nM) in KAB. Add 40 μL/well to a Weidman plate. • Prepare ATP (66 μM) in KAB. • Prepare c-Raf (60 nM) in KAB. Add 25 μL/well to a Weidman plate. • Dilute compounds to 2.4 mM in DMSO. Perform 10-point 3× dilution in DMSO. • Withdraw 2.5 ul/well of DMSO solution and add to 27.5 μL/well ATP solution in (3). • Add 12 μL/well 6H-MEK to the assay plate on the Cybiwell, followed by 6 μL/well of solution in (5) and 6 μL/well of solution in (4) for a DMSO concentration of 2.1% during MEK phosphorylation. • Incubate at 37° C. for 30 minutes. • Prepare rabbit α-P-(Ser 217/221)-MEK-1/2 Ab (1:225 from stock) in AB1: 50 mM HEPES pH7, 0.2 mg/mL BSA, and 53 mM EDTA. • To stop reaction, add 6 μL/well of solution from (8) to the assay plate and incubate at 37° C. for 30 minutes. • Prepare Eu-α-rabbit IgG (9 nM) and α-6H-SureLight-APC (120 nM) in AB2: 50 mM HEPES pH7 and 0.2 mg/mL BSA. • Add 6 μL/well of solution from (10) to the assay plate. • For determining the spectrum cross talk factor, prepare 2 samples following steps (6) to (9). For the blank sample, add 6 μL/well of AB2. For the cross talk factor sample, add 6 μL/well of Eu-anti rabbit IgG (9 nM). • Incubate at 37° C. for 1 hour.
Read HTRF signals at 615 nm and 665 nm on the Envision. Normalize HTRF signals after spectrum cross-talk correction.

T1 sequence (P04049 whole entry): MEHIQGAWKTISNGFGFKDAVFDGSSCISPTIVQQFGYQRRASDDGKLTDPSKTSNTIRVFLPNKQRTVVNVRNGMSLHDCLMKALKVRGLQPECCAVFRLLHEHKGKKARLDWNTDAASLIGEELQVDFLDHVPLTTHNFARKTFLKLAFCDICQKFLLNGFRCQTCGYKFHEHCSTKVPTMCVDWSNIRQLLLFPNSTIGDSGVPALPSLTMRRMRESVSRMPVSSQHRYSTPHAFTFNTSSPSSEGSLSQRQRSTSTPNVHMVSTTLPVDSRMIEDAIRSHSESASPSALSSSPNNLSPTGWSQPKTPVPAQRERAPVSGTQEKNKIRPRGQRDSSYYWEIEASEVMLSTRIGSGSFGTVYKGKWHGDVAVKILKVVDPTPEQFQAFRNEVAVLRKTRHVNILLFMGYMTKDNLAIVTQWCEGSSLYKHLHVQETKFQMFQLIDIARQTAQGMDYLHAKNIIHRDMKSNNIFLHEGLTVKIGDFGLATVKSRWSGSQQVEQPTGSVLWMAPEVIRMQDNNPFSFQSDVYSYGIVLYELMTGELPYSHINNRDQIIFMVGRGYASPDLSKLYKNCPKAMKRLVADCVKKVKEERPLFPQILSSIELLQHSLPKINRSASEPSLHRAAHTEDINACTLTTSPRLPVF

Row | SMILES | IC50 [nM]
1 | CCOC(=O)c1cnc(N)c2c(COc3cccc(OCc4ccc(OC)c(C(F)(F)F)c4)c3)csc12 [Example 18, 4-Amino-3-[3-(4-methoxy-3-trifluoromethyl-benzyloxy)-phenoxymethyl]-thieno[3,2-c]pyridine-7-carboxylic acid ethyl ester] | 324
2 | CCOC(=O)c1cnc(N)c2c(COc3cccc(OCc4ccccc4)c3)csc12 [Example 2, 4-Amino-3-(3-benzyloxy-phenoxymethyl)-thieno[3,2-c]pyridine-7-carboxylic acid ethyl ester] | 836
3 | Nc1ncc(C(=O)NCCO)c2scc(COc3cccc(OCc4cccc(Cl)c4)c3)c12 [Example 7, 4-Amino-3-[3-(3-chloro-benzyloxy)-phenoxymethyl]-thieno[3,2-c]pyridine-7-carboxylic acid (2-hydroxy-ethyl)-amide] | 22
4 | CCOC(=O)c1cnc(N)c2c(COc3cccc(OCc4cccc(OC)c4)c3)csc12 [Example 14, 4-Amino-3-[3-(3-methoxy-benzyloxy)-phenoxymethyl]-thieno[3,2-c]pyridine-7-carboxylic acid ethyl ester] | 2020
